The subject of test [1] is NCI-60 panel of human cancer cell lines. Also noted: method as in earlier work. The settings on record: full NCI panel, ref 42−45, cited from earlier work.
The test system of the next test is VL51 ibrutinib-resistant. Briefly: MTT cell proliferation, lymphoma. The conditions noted are these: Homo sapiens, 72 h, of untreated cells, read-out: Proliferating cells (%). It is filed as cell-based. The method, then: (§1) All compounds were further tested at the concentration of 1 μM on four cell lines derived from distinct lymphoma histotypes, plus two with secondary resistance to the PI3Kδ inhibitor idelalisib[51] or to the BTK inhibitor ibrutinib.[52] […] For comparison, the same experiments were conducted using compound 3, but the response to it was minimal, and thus it was not considered further.
(§2) Established human cell lines derived from germinal center B-cell (GCB) (SU-DHL-10), activated B-cell (ABC) (HBL1) diffuse large B-cell lymphoma (DLBCL), mantle cell lymphoma (MCL) (MINO), splenic marginal zone lymphoma (SMZL) (parental VL51, VL51 idelalisib resistant clone, VL51 ibrutinib resistant clone) were cultured in culture RPMI-1640 media supplemented with fetal bovine serum (10%), penicillin–streptomycin–neomycin (∼5,000 units of penicillin, 5 mg of streptomycinm and 10 mg of neomycin/mL, Sigma), and L-glutamine (1%). Vincristine sulfate was purchased from Sigma-Aldrich. Cell line identities were confirmed by CellCheck test (IDEXX, BioResearch, Ludwigsburg, Germany). All compounds were dissolved in dimethyl sulfoxide to obtain a stock concentration of 10 mM.
(§3) The antiproliferative activity of all compounds was assessed by using the 3-(4.5-dimethylthiazolyl-2)-2,5-diphenyltetrazolium bromide (MTT) test. Cells were seeded in 96-well plates (nontissue culture treated) at a density of 1 × 10^5 cells/mL and treated with a single concentration of 1 μM for 72 h. […] In this case, cells were treated in triplicate with serially diluted compounds in the appropriate tissue culture medium at a range of 40–10 000 nM. Cells were incubated for 72 h at 37 °C, 5% CO2. Wells containing medium only were included on each plate and served as blanks for absorbance readings. MTT (Sigma, Buchs, Switzerland) was prepared as a 5 mg/mL stock solution in phosphate buffered saline (PBS) and filter-sterilized. MTT solution (22 μL) was added to each well, and tissue culture plates were incubated at 37 °C for 4 h. Cells were then lysed with 25% sodium dodecyl sulfate lysis buffer, and absorbance was read at 570 nm using a Beckman Coulter-AD340 plate reader.

The test system of test [2] is VL51 idelalisib-resistant. Description: MTT cell proliferation, lymphoma. It is filed as cell-based. The settings on record: Homo sapiens, 72 h, of untreated cells, read-out: Proliferating cells (%). On the procedure:
as §1, §2, §3

Another test has as its system HBL1 (ABC DLBCL). Description: MTT cell proliferation, lymphoma. It is filed as cell-based. The settings on record: Homo sapiens, 72 h; for activity at 1 µM: of untreated cells, read-out: Proliferating cells (%). On the procedure: as §1, §2, §3
For the next test, the system named is VL51 (MZL). Briefly: MTT cell proliferation, lymphoma. The settings on record: Homo sapiens, 72 h; for activity at 1 µM: of untreated cells, read-out: Proliferating cells (%). It is filed as cell-based. The method, then:
as §1, §2, §3

For the next test, the system named is MINO (MCL). Briefly: MTT cell proliferation, lymphoma. It is filed as cell-based. The settings on record: Homo sapiens, 72 h; for activity at 1 µM: of untreated cells, read-out: Proliferating cells (%). On the procedure:
as §1, §2, §3

The test system of a further test is SU-DHL-10 (GCB DLBCL). Briefly: MTT cell proliferation, lymphoma. It is filed as cell-based. The conditions noted are these: Homo sapiens, SU-DHL10, 72 h; for activity at 1 µM: of untreated cells, read-out: Proliferating cells (%). On the procedure: as §1, §2, §3
For another test, the target named is bovine brain tubulin (Bos taurus, UniProt P81947+Q6B856). Description: Inhibition of tubulin assembly (turbidimetry). It is filed as biochemical. The conditions noted are these: 9 μM (0.9 mg/mL) tubulin, 20 min at 30 °C; read-out: inhibition of tubulin assembly IC50 ± SD.
Sequence of bovine brain tubulin (Q6B856 whole entry): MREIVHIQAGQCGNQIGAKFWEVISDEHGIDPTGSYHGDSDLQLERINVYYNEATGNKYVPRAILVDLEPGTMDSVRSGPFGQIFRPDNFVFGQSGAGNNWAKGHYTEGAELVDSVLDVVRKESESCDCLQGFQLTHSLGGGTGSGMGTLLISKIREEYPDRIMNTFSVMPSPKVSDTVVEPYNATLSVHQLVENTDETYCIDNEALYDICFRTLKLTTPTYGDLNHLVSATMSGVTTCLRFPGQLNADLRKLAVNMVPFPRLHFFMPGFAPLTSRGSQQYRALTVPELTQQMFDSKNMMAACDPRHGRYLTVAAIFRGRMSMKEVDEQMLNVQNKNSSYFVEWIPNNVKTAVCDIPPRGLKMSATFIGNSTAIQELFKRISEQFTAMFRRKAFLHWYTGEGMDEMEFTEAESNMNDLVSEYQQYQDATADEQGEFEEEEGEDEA
Sequence of bovine brain tubulin (P81947 whole entry): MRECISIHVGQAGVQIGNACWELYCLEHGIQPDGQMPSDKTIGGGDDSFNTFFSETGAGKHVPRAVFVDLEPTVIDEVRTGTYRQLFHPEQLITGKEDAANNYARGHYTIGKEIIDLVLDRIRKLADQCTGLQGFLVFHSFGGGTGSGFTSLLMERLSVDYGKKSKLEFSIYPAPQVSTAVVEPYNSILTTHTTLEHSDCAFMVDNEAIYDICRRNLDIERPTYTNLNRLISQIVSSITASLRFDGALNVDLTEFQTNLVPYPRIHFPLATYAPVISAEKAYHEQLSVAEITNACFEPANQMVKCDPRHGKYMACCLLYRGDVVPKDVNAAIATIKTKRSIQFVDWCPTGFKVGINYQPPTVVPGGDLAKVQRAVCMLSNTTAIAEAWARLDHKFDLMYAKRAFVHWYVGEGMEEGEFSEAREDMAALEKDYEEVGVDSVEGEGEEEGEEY
The next test has as its system six lymphoma cell lines. Briefly: MTT cell proliferation, all lymphoma cell lines. The conditions noted are these: 1 μM, 72 h, of the untreated cells. It is filed as cell-based, human. The method, then:
as §1
Established human cell lines derived from germinal center B-cell (GCB) (SU-DHL-10), activated B-cell (ABC) (HBL1) diffuse large B-cell lymphoma (DLBCL), mantle cell lymphoma (MCL) (MINO), splenic marginal zone lymphoma (SMZL) (parental VL51, VL51 idelalisib resistant clone, VL51 ibrutinib resistant clone) were cultured in culture RPMI-1640 media supplemented with fetal bovine serum (10%), penicillin–streptomycin–neomycin (∼5,000 units of penicillin, 5 mg of streptomycinm and 10 mg of neomycin/mL, Sigma), and L-glutamine (1%). Vincristine sulfate was purchased from Sigma-Aldrich. […]
The antiproliferative activity of all compounds was assessed by using the 3-(4.5-dimethylthiazolyl-2)-2,5-diphenyltetrazolium bromide (MTT) test. […] Wells containing medium only were included on each plate and served as blanks for absorbance readings. […] Cells were then lysed with 25% sodium dodecyl sulfate lysis buffer, and absorbance was read at 570 nm using a Beckman Coulter-AD340 plate reader.

The next test concerns tumor growth. Details: method as in PMID 17915194, PMID 21215627. The conditions noted are these: in vivo models, dose of 50–100 mg/kg; cited from earlier work.
The target in a further test is tubulin colchicine site (Bos taurus, UniProt P81947+Q6B856). Description: Inhibition of [3H]colchicine binding to tubulin. The settings on record: read-out: inhibition of colchicine binding % inhibition ± SD.
Sequence of tubulin colchicine site (Q6B856 whole entry): as the sequence (Q6B856 whole entry) above
Sequence of tubulin colchicine site (P81947 whole entry): as the sequence (P81947 whole entry) above
Test [3] concerns human peripheral blood lymphocytes not stimulated with PHA. Briefly: Cytotoxicity in resting PBLs (MTT). It is filed as cell-based. The conditions noted are these: Lymphocyte, 72 h, mean ± SEM, three experiments, read-out: GI50 PBLresting. On the procedure: (§4) PBLs were obtained from human peripheral blood (leucocyte rich plasma-buffy coats) from healthy volunteers using the Lymphoprep (Fresenius KABI Norge AS) gradient density centrifugation.
(§5) After extensive washing, cells were resuspended (1.0 × 10^6 cells/mL) in RPMI-1640 with 10% fetal bovine serum and incubated overnight. For cytotoxicity evaluations in proliferating PBL cultures, nonadherent cells were resuspended at 5 × 10^5 cells/mL in growth medium, containing 2.5 μg/mL PHA (Irvine Scientific). Different concentrations of the test compounds were added, and viability was determined 72 h later by the MTT test. For cytotoxicity evaluations in resting PBL cultures, nonadherent cells were resuspended (5 × 10^5 cells/mL) and treated for 72 h with the test compounds.

Test [4] concerns human peripheral blood lymphocytes stimulated with PHA. Briefly: Cytotoxicity in PHA-stimulated PBLs (MTT). It is filed as cell-based. The conditions noted are these: Lymphocyte, 72 h, mean ± SEM, three experiments, read-out: GI50 PBLPHA. On the procedure: as §4, §5

Usually GI50 stands for the concentration giving 50% growth inhibition. In general, IC50 refers to the concentration needed to halve the response being measured. A word on the inhibition: it is the share of the control response that was lost under treatment.

Method for tubulin colchicine site: Reaction mixtures in the assembly assay contained 9 μM (0.9 mg/mL) tubulin in the assembly assay, and in the colchicine assay they contained 0.5 μM tubulin, 5.0 μM [^3H]colchicine, and 5.0 μM inhibitor.
Analysis of effects on tubulin polymerization was performed by turbidimetry at 350 nm in recording spectrophotometers equipped with electronic temperature controllers as described in detail elsewhere.[71] […] The binding of [^3H]colchicine to tubulin was perfomed as described in detail previously[72] except that the tubulin concentration was reduced from 0.1 mg/mL to 0.05 mg/mL and only one, instead of two, DEAE-cellulose filter was used for each reaction mixture.

Take `CCOC(=O)c1cc2c(n1Cc1cc(OC)cc(OC)c1)-c1oncc1CC2` [Compound 3, ethyl 8-(3,5-dimethoxybenzyl)-5,8-dihydro-4H-[1,2]oxazolo[4,5-g]indole-7-carboxylate, reference compound]: the “MG_MID (mean graph midpoint)” value in test [1] is 0.25 µM. In addition, the GI50 in test [1] (read-out: GI50 range) is 30 to 31100 nM. In addition, the activity at 1 µM worked out at 123% in the test on VL51 ibrutinib-resistant; 107% in test [2]; 95.6% in the test with HBL1 (ABC DLBCL); 93.5% in the test on VL51 (MZL); 94.5% in the test on MINO (MCL); 80% in the test on SU-DHL-10 (GCB DLBCL). Also, the IC50 at bovine brain tubulin was 9200 ± 400 nM. In the test with six lymphoma cell lines, the “percentage of proliferating cells, all tested cell lines” value is “minimal”.

Turning to `CCc1cc(-c2oncc2-c2ccc(OC)cc2)c(O)cc1OC` [KRIBB3], in the test with tumor growth, the “reduction of tumor growth” value is listed as 50–70%.

For `COc1ccc(Cn2ccc3c2-c2oncc2CCC3)cc1` [Compound 56, 9-(4-Methoxybenzyl)-4,5,6,9-tetrahydropyrrolo[2′,3′:3,4]cyclohepta[1,2-d][1,2]oxazole], the activity at 1 µM amounted to 110% with VL51 ibrutinib-resistant; 127% in [2]; 123% with HBL1 (ABC DLBCL); 110% with VL51 (MZL); 109% with MINO (MCL); 74.6% in the test with SU-DHL-10 (GCB DLBCL). The IC50 at bovine brain tubulin was 8200 ± 500 nM.

For `COc1ccc(OC)c(Cn2ccc3c2-c2oncc2CCC3)c1` [Compound 57, 9-(2,5-Dimethoxybenzyl)-4,5,6,9-tetrahydropyrrolo[2′,3′:3,4]cyclohepta[1,2-d][1,2]oxazole], the activity at 1 µM in the test on VL51 ibrutinib-resistant is 37%; in test [2], 34.3%; with HBL1 (ABC DLBCL), 29.6%; in the test on VL51 (MZL) it was 36.5%; with MINO (MCL), 8.5%; with SU-DHL-10 (GCB DLBCL), 11%. Besides, the IC50 turned out to be 600 nM in the test on HBL1 (ABC DLBCL) (MTT); 200 nM in the test with VL51 (MZL) (MTT); 400 nM with MINO (MCL) (MTT); 300 nM in the test with SU-DHL-10 (GCB DLBCL) (MTT); 3200 ± 60 nM on bovine brain tubulin. For the same molecule, the inhibition at 5 µM on tubulin colchicine site came to 38 ± 0.7%.

For the molecule `CC[C@]1(O)C[C@H]2CN(CCc3c([nH]c4ccccc34)[C@@](C(=O)OC)(c3cc4c(cc3OC)N(C=O)[C@H]3[C@@](O)(C(=O)OC)[C@H](OC(C)=O)[C@]5(CC)C=CCN6CC[C@]43[C@@H]65)C2)C1` [vincristine, reference compound], the concentration for 50% growth inhibition (GI50) was 7500 ± 3100 nM in test [3] and 1200 ± 600 nM in test [4].

For the molecule `COc1ccc(/C=C\c2cc(OC)c(OC)c(OC)c2)cc1O` [CA-4, combretastatin A-4, reference compound], the inhibition at 5 µM on tubulin colchicine site was determined as 97 ± 0.9%.

Consider `COc1cc(Cn2ccc3c2-c2oncc2CCC3)cc(OC)c1` [Compound 58, 9-(3,5-Dimethoxybenzyl)-4,5,6,9-tetrahydropyrrolo[2′,3′:3,4]cyclohepta[1,2-d][1,2]oxazole], for which the activity at 1 µM was 73% in the test with VL51 ibrutinib-resistant; 78.4% in test [2]; 114% with HBL1 (ABC DLBCL); 84% in the test on VL51 (MZL); 101% with MINO (MCL); 72.4% in the test with SU-DHL-10 (GCB DLBCL). Further, the inhibition at 5 µM on tubulin colchicine site was determined as 25 ± 3%. Also, the concentration for half-maximal inhibition (IC50) on bovine brain tubulin was found to be 5700 ± 1000 nM.
